Reference: publication PMC3269340, “Pharmacokinetics of memantine in rats and mice” (PLoS Currents, 2012)
Where two headings read alike, the source gives them in different places.

Test: Pharmacokinetics in rats after single iv, po or sc dose (plasma and brain)
Format: in vivo, Sprague-Dawley rats
Settings: male, Sprague-Dawley; for Kp: brain/plasma, read-out: Ratio of Brain-to-Plasma AUC(0-∞); for Vd: read-out: Volume of Distribution at Steady State (Vdss); for bioavailability: read-out: Bioavailability (F); for AUC(0-inf): read-out: AUC(0-∞); for Cmax: read-out: Observed Cmax
Experimental: Sprague Dawley (SD) rats (138 adult males), and C57Bl/6 mice (140 adult males), were obtained (Hilltop Laboratories, Scottsdale, PA); 123 per species were used in the study and the remainder provided blank matrix. Animals were individually identified by tail markings and were acclimated to the study environment for 16-21 days prior to dose administration. Animals were individually housed in suspended wire caging, and were kept on a 12h/12h light/dark cycle except when interrupted for study procedures. Average room temperature was regulated in the range 18 to 29°C, average relative humidity of 30-70%, and an average daily airflow >10 fresh air changes/h. Animals were fed LabDiet^Ò Certified Rodent Diet 5002 Meal food ad libitum, except during fasting prior to dose administration, and had access to water ad libitum.
[…] […] The concentration of memantine for the same dose level administered to mice was 0.2 mg eq./mL, and the dose volume was 5 mL/kg. The concentration of memantine in the 10mg eq./kg po and sc solutions was 5 mg eq./mL and the dose volume was 2 mL/kg for both rats and mice.
Details of the dose administration, body weights, clinical observations, plasma and brain sample collection and preparation are not shown in this report but are available upon request. Blood (for preparation of plasma) and brain samples were collected at 0.08, 0.25, 0.5, 1, 2, 4, 8, and 24h post-dose.
Since all time points were terminal, mean memantine concentrations per time point were used to calculate the composite PK parameters by non-compartmental analysis using WinNonlin program, version 5.2 (Pharsight Corp., Mountain View, California). A model was selected based on the vascular (iv bolus) or extravascular (po or sc) routes of administration. For the iv route, plasma concentration at time zero was back extrapolated from the first two observed post dose plasma concentrations. For the po and sc routes, concentration at time zero was assumed to be zero. Plasma and tissue concentrations below the limit of quantitation were treated as absent samples for the purpose of calculating the mean plasma concentration values or for calculating PK parameters.
The area under the plasma concentration versus time curve (AUC) was calculated using the linear trapezoidal method (linear interpolation). When appropriate, the terminal elimination phase of the PK profile was estimated based on the best fit (r^2) using at least the last three observed concentrations. PK parameters describing the systemic exposure of memantine in plasma and brain were estimated from observed (rather than predicted) plasma/brain concentrations, the dosing regimen, the AUC, and the terminal elimination phase rate constant (kel) for each group. The portion of the AUC from the last measurable concentration to infinity was estimated from the equation Ct/kel, where Ct represents the last measurable concentration. The extrapolated portion of the AUC was used for the determination of AUC0-∞. The percent bioavailability (%F) was calculated by dividing the dose normalized extravascular plasma AUC0-∞ by the dose normalized iv plasma AUC0-∞ times 100. The bioavailability calculations assumed concentrations were in the linear range.
Concentrations of memantine in rat and mouse plasma and brain were determined using an LC-MS/MS assay developed at ABC Laboratories.

[1] = rat, brain, iv, 1.22 mg/kg, rat brain, IV 1.22 mg eq./kg
[2] = rat, brain, po, 1.22 mg/kg, rat brain, PO 1.22 mg eq./kg
[3] = rat, brain, po, 10 mg/kg, rat brain, PO 10.0 mg eq./kg
[4] = rat, brain, sc, 1 mg/kg, rat brain, SC 1.0 mg eq./kg
[5] = rat, brain, sc, 10 mg/kg, rat brain, SC 10.0 mg eq./kg

## CC12CC3CC(C)(C1)CC(N)(C3)C2 [memantine]
1 mg/kg, rat brain, SC 1.0 mg eq./kg
  AUC(0-t): 48 µM·h
1 mg/kg, rat brain, SC 1.0 mg eq./kg, read-out: Observed Tmax
  Tmax: 0.5 h
1 mg/kg, rat plasma, SC 1.0 mg eq./kg
  AUC(0-t): 1.62 µM·h
1 mg/kg, rat plasma, SC 1.0 mg eq./kg, read-out: Observed Tmax
  Tmax: 0.25 h
1.22 mg/kg, rat brain, IV 1.22 mg eq./kg
  AUC(0-t): 43 µM·h
1.22 mg/kg, rat brain, IV 1.22 mg eq./kg, read-out: Observed Tmax
  Tmax: 0.5 h
1.22 mg/kg, rat brain, PO 1.22 mg eq./kg
  AUC(0-t): 13.1 µM·h
1.22 mg/kg, rat brain, PO 1.22 mg eq./kg, read-out: Observed Tmax
  Tmax: 2 h
1.22 mg/kg, rat plasma, IV 1.22 mg eq./kg
  AUC(0-t): 1.57 µM·h
1.22 mg/kg, rat plasma, IV 1.22 mg eq./kg, read-out: Mean Residency Time (MRT0-∞)
  MRT inf: 2.08 h
1.22 mg/kg, rat plasma, PO 1.22 mg eq./kg
  AUC(0-t): 0.541 µM·h
1.22 mg/kg, rat plasma, PO 1.22 mg eq./kg, read-out: Observed Tmax
  Tmax: 1 h
10 mg/kg, rat brain, PO 10.0 mg eq./kg
  AUC(0-t): 254 µM·h
10 mg/kg, rat brain, PO 10.0 mg eq./kg, read-out: Observed Tmax
  Tmax: 2 h
10 mg/kg, rat brain, SC 10.0 mg eq./kg
  AUC(0-t): 441 µM·h
10 mg/kg, rat brain, SC 10.0 mg eq./kg, read-out: Observed Tmax
  Tmax: 1 h
10 mg/kg, rat plasma, PO 10.0 mg eq./kg
  AUC(0-t): 11.2 µM·h
10 mg/kg, rat plasma, PO 10.0 mg eq./kg, read-out: Observed Tmax
  Tmax: 0.5 h
10 mg/kg, rat plasma, SC 10.0 mg eq./kg
  AUC(0-t): 25.8 µM·h
10 mg/kg, rat plasma, SC 10.0 mg eq./kg, read-out: Observed Tmax
  Tmax: 0.5 h
rat, IV 1.22 mg eq./kg
  Kp: 29.1
rat, PO 1.22 mg eq./kg
  Kp: 35.6
rat, PO 10.0 mg eq./kg
  Kp: 22.5
rat, SC 1.0 mg eq./kg
  Kp: 31.4
rat, SC 10.0 mg eq./kg
  Kp: 17.1
plasma, 1.22 mg/kg, rat, IV 1.22 mg eq./kg, read-out: Plasma Clearance (CLp) (converted)
  clearance: 4.15 L/h/kg
plasma, 1.22 mg/kg, rat, IV 1.22 mg eq./kg
  Vd: 8.62 L/kg
plasma, 1.22 mg/kg, rat, PO 1.22 mg eq./kg
  bioavailability: 36.3%
plasma, 10 mg/kg, rat, PO 10.0 mg eq./kg
  bioavailability: 84.9%
plasma, oral, rat, dose 10 mg/kg, single dose in solution, read-out: C min
  concentration at 24 h: 0.03 µM
plasma, po, rat, dose 1 mg/kg, cross-species summary, read-out: T max
  Tmax: 1 h
plasma, rat, IV 1.22 mg eq./kg
  Vd: 8 to 9 L/kg
plasma, rat, PO 1.22 mg eq./kg
  bioavailability: 36%
plasma, rat, dose 10 mg/kg, cross-species summary, read-out: T max
  Tmax: 0.5 to 1 h
[1]
  AUC(0-inf): 47.6 µM·h
  Cmax: 11 µM
rat, brain, iv, 1.22 mg/kg, rat brain, IV 1.22 mg eq./kg, read-out: Half-life (t½) (converted)
  half-life: 2.28 h
rat, brain, oral, subcutaneous, summary for rats and mice, rat, read-out: brain elimination half-lives after extravascular administrations
  half-life: 2.3 to 3.8 h
rat, brain, po, 1.22 mg/kg, rat brain, PO 1.22 mg eq./kg, estimated using the LOQ for the 24 hr concentration, large imprecision, read-out: Half-life (t½) (converted)
  half-life: < 2.54 h
[2]
  AUC(0-inf): 21.1 µM·h
  Cmax: 2.17 µM
[3]
  AUC(0-inf): 256 µM·h
  Cmax: 25.4 µM
rat, brain, po, 10 mg/kg, rat brain, PO 10.0 mg eq./kg, read-out: Half-life (t½) (converted)
  half-life: 3.7 h
[4]
  AUC(0-inf): 53 µM·h
  Cmax: 10.6 µM
rat, brain, sc, 1 mg/kg, rat brain, SC 1.0 mg eq./kg, read-out: Half-life (t½) (converted)
  half-life: 2.51 h
[5]
  AUC(0-inf): 442 µM·h
  Cmax: 75.4 µM
rat, brain, sc, 10 mg/kg, rat brain, SC 10.0 mg eq./kg, read-out: Half-life (t½) (converted)
  half-life: 2.65 h
rat, plasma, intravenous, oral, subcutaneous, rat, all dose routes and levels (plasma; b142 also brain), read-out: elimination half-life
  half-life: 3 to 4 h
